# Measurements as given in US4994485A, “Thio compounds having fungicidal activity” (Duphar International Research B.V., priority 1986, dated 1991).
# Assays:
# Type in all cases: cell-based
# [1] = tested on: Pythium splendens; assay: In vitro test on activity against Pythium splendens; details: Globisporangium splendens, read-out: growth inhibition of the fungus
# [2] = tested on: Pyrenophora graminea; assay: In vitro test on activity against Pyrenophora graminea; details: 48 hours, 20° C., read-out: % growth inhibition of the fungus
# Protocol: In vitro test on activity against Pyrenophora graminea.
# (§1) The compound to be tested is processed in a culture medium consisting of 1% by weight of glucose, 0.2% by weight of a yeast extract (marmite), 0.5% by weight of a protein (pepton), 2.5% by weight of agar-agar, and 95.8% by weight of water, in petri dishes in concentrations of 3 and 10 ppm. The petri dishes are inoculated with the plant-pathogenic fungus Pyrenophora graminea and then kept at a temperature of 20° C. After 48 hours the growth-inhibiting activity of the compounds is determined visually. For comparison, the known substance (b) (see EXAMPLE XV) is also tested.
# [3] = tested on: Fusarium culmorum; assay: In vitro test on activity against Fusarium culmorum; details: read-out: growth inhibition of the fungus
# [4] = tested on: Leptosphaeria nodorum; assay: In vitro test on activity against Leptosphaeria nodorum; details: Parastagonospora nodorum, read-out: growth inhibition of the fungus
# Protocol: as §1
# Compounds according to the invention are tested on i Leptosphaeria nodorum in the same manner as described in EXAMPLE XIX.
SMILES,inhibition at 10 ppm [1],inhibition at 3 ppm ([2]; 3 ppm),inhibition at 10 ppm [2],inhibition at 30 ppm [3],inhibition at 30 ppm [4]
"CC(=O)c1sc([S+](C)[O-])c(C#N)c1-c1ccc(Cl)cc1 (stereo not shown) [(6), 2-methylsulphinyl 3-cyano-4-(4-chlorophenyl)-5-acetylthiophene]",≥ 95%,54%,77%,–,–
"N#Cc1cc(C#N)c([S+]([O-])c2ccccc2)s1 (stereo not shown) [(32), 2-phenylsulphinyl-3,5-dicyanothiophene]",≥ 95%,–,–,≥ 75%,≥ 85%
"CCC[S+]([O-])c1sc(C#N)cc1C#N (stereo not shown) [(40), 2-n-propylsulphinyl 3,5-dicyanothiophene]",≥ 95%,–,–,≥ 75%,≥ 85%
"CCCC[S+]([O-])c1sc(C#N)c(OC)c1C#N (stereo not shown) [(41), 2-n-butylsulphinyl-3,5-dicyano 4-methoxythiophene]",≥ 95%,–,–,≥ 75%,≥ 85%
"N#Cc1cc(C#N)c(S(=O)(=O)c2ccccc2)s1 [(45), 2-phenylsulphonyl-3,5-dicyanothiophene]",≥ 95%,–,–,≥ 75%,≥ 85%
"CCCC[S+]([O-])c1sc(C(C)=O)c(N)c1C#N (stereo not shown) [(58), 2-n-butylsulphinyl-3 cyano-4-amino-5-acetylthiophene]",≥ 95%,–,–,≥ 75%,≥ 85%
"CC[S+]([O-])c1sc(C(=O)c2ccccc2)c(N)c1C#N (stereo not shown) [(65), 2-ethylsulphinyl-3-cyano-4-amino-5-benzoylthiophene]",–,–,–,≥ 75%,≥ 85%
"CC[S+]([O-])c1sc(C(=O)c2ccc(Cl)cc2)c(N)c1C#N (stereo not shown) [(66), 2 ethylsulphinyl-3-cyano-4-amino-5-(4-chlorobenzoyl)thiophene]",≥ 95%,–,84%,–,–
"CCC[S+]([O-])c1sc(C(=O)c2ccccc2)c(N)c1C#N (stereo not shown) [(67), 2-n-propylsulphinyl-3-cyano-4-amino-5-benzoylthiophene]",≥ 95%,–,–,≥ 75%,≥ 85%
"CC[S+]([O-])c1sc(C#N)c(-c2ccccc2)c1C#N (stereo not shown) [(71), 2-ethylsulphinyl-3,5-dicyano-4-phenylthiophene]",–,–,–,≥ 75%,≥ 85%
"CCC[S+]([O-])c1sc(C(=O)c2ccc(Cl)cc2)cc1C#N (stereo not shown) [(73), 2-n-propylsulphinyl-3-cyano-5-(4-chlorobenzolyl)thiophene]",–,–,–,≥ 75%,≥ 85%
"COc1c(C(=O)c2ccccc2)sc([S+](C)[O-])c1C#N (stereo not shown) [(74), 2-methylsulphinyl-3-cyano-4-methoxy-5-benzoylthiophene]",≥ 95%,–,–,≥ 75%,≥ 85%
"CCC[S+]([O-])c1sc(C(=O)c2ccccc2)c(OC)c1C#N (stereo not shown) [(75), 2-n-propylsulphinyl-3-cyano-4-methoxy-5-benzoylthiophene]",–,–,–,≥ 75%,≥ 85%
"N#Cc1sc([S+]([O-])Cc2ccccc2)c(C#N)c1Cl (stereo not shown) [(78), 2-benzylsulphinyl-3,5-dicyano-4-chlorothiophene]",≥ 95%,–,86%,≥ 75%,–
"CC[S+]([O-])c1sc(C(C)=O)c(-c2ccccc2)c1C#N (stereo not shown) [(87), 2-ethylsulphinyl-3-cyano-4-phenyl-5-acetylthiophene]",–,–,–,≥ 75%,≥ 85%
"CCCC[S+]([O-])c1sc(C(=O)c2ccccc2)c(N)c1C#N (stereo not shown) [(88), 2-n-butylsulphinyl-3-cyano-4-amino-5-benzoylthiophene]",–,–,–,≥ 75%,≥ 85%
"CCCCS(=O)(=O)c1sc(C#N)c(Br)c1C#N [(89), 2-n-butylsulphonyl 3,5-dicyano-4-bromothiophene]",≥ 95%,–,–,≥ 75%,≥ 85%
"CC[S+]([O-])c1sc(C(=O)c2ccccc2)c(Cl)c1C#N (stereo not shown) [(92), 2-ethylsulphinyl-3-cyano-4-chloro-5-benzoylthiophene]",–,–,–,≥ 75%,≥ 85%
